Species: Rattus norvegicus
Test: DrugMatrix - Regimen: Daily Repeat
Format: toxicity, organism-based, Sprague-Dawley
Parameters: regimen Daily Repeat, gender Male, age 6-8 weeks
Settings: in vivo, po, route oral GAVAGE, […]; for ABSOLUTE BASOPHIL / ABSOLUTE EOSINOPHIL / ABSOLUTE LYMPHOCYTE / ABSOLUTE MONOCYTE / ABSOLUTE SEGMENTED NEUTROPHIL / BASOPHIL / EOSINOPHIL / ERYTHROCYTE COUNT / HEMATOCRIT / HEMOGLOBIN / LEUKOCYTE COUNT / LYMPHOCYTE / MEAN CORPUSCULAR HEMOGLOBIN / MEAN CORPUSCULAR HEMOGLOBIN CONCENTRATION / MEAN CORPUSCULAR VOLUME / MONOCYTE / NEUTROPHIL / NUCLEATED RED BLOOD CELLS / PLATELET COUNT: tissue Blood; for ALANINE AMINOTRANSFERASE / ALBUMIN / ALKALINE PHOSPHATASE / ASPARTATE AMINOTRANSFERASE / BLOOD UREA NITROGEN / CARBON DIOXIDE / CHLORIDE / CHOLESTEROL / CREATINE PHOSPHOKINASE / CREATININE / GLUCOSE / LACTATE DEHYDROGENASE / LIPASE / PHOSPHORUS / POTASSIUM / SODIUM / TOTAL BILIRUBIN / TOTAL PROTEIN / URIC ACID: tissue Plasma
[1] = 5 mg/kg, 120 h, dose level Low, time 5 day
[2] = 13 mg/kg, 72 h, dose level High, time 3 day
[3] = 13 mg/kg, 120 h, dose level High, time 5 day

Structure (SMILES): O=c1oc2ccccc2c(O)c1Cc1c(O)c2ccccc2oc1=O [DICUMAROL]
- ABSOLUTE BASOPHIL [1]: 0 CELLS/uL
- ABSOLUTE EOSINOPHIL [1]: 23.33 CELLS/uL
- ABSOLUTE LYMPHOCYTE [1]: 6534.33 CELLS/uL
- ABSOLUTE MONOCYTE [1]: 0 CELLS/uL
- ABSOLUTE SEGMENTED NEUTROPHIL [1]: 809 CELLS/uL
- BASOPHIL [1]: 0%
- EOSINOPHIL [1]: 0.33%
- ERYTHROCYTE COUNT [1]: 5.38 x10E6/uL
- HEMATOCRIT [1]: 33.9%
- HEMOGLOBIN [1]: 13.03 G/DL
- LEUKOCYTE COUNT [1]: 7.37 x10E3/uL
- LYMPHOCYTE [1]: 88.67%
- MEAN CORPUSCULAR HEMOGLOBIN [1]: 24.27 pg
- MEAN CORPUSCULAR HEMOGLOBIN CONCENTRATION [1]: 38.47 G/DL
- MEAN CORPUSCULAR VOLUME [1]: 63 fL
- MONOCYTE [1]: 0%
- NEUTROPHIL [1]: 11%
- NUCLEATED RED BLOOD CELLS [1]: 0 /100WBC
- PLATELET COUNT [1]: 1062 x10E3/uL
- ALANINE AMINOTRANSFERASE [1]: 70.33 u/L
- ALBUMIN [1]: 4.17 G/DL
- ALKALINE PHOSPHATASE [1]: 492.33 u/L
- ASPARTATE AMINOTRANSFERASE [1]: 90.67 u/L
- BLOOD UREA NITROGEN [1]: 13.67 mg/dL
- CARBON DIOXIDE [1]: 31.67 mmol/L
- CHLORIDE [1]: 100 MEQ/L
- CHOLESTEROL [1]: 66.67 mg/dL
- CREATINE PHOSPHOKINASE [1]: 491.67 u/L
- CREATININE [1]: 0.15 mg/dL
- GLUCOSE [1]: 160.33 mg/dL
- LACTATE DEHYDROGENASE [1]: 134.33 u/L
- LIPASE [1]: 9.33 u/L
- PHOSPHORUS [1]: 9.47 mg/dL
- POTASSIUM [1]: 5.06 MEQ/L
- SODIUM [1]: 142.1 MEQ/L
- TOTAL BILIRUBIN [1]: 0.17 mg/dL
- TOTAL PROTEIN [1]: 6.07 G/DL
- URIC ACID [1]: 0.43 mg/dL
- ABSOLUTE BASOPHIL [2]: 0 CELLS/uL
- ABSOLUTE EOSINOPHIL [2]: 43.33 CELLS/uL
- ABSOLUTE LYMPHOCYTE [2]: 9740.67 CELLS/uL
- ABSOLUTE MONOCYTE [2]: 39.67 CELLS/uL
- ABSOLUTE SEGMENTED NEUTROPHIL [2]: 443 CELLS/uL
- BASOPHIL [2]: 0%
- EOSINOPHIL [2]: 0.33%
- ERYTHROCYTE COUNT [2]: 5.24 x10E6/uL
- HEMATOCRIT [2]: 32.97%
- HEMOGLOBIN [2]: 12.9 G/DL
- LEUKOCYTE COUNT [2]: 10.27 x10E3/uL
- LYMPHOCYTE [2]: 95%
- MEAN CORPUSCULAR HEMOGLOBIN [2]: 24.7 pg
- MEAN CORPUSCULAR HEMOGLOBIN CONCENTRATION [2]: 39.13 G/DL
- MEAN CORPUSCULAR VOLUME [2]: 63.17 fL
- MONOCYTE [2]: 0.33%
- NEUTROPHIL [2]: 4.33%
- NUCLEATED RED BLOOD CELLS [2]: 0 /100WBC
- PLATELET COUNT [2]: 923.67 x10E3/uL
- ALANINE AMINOTRANSFERASE [2]: 65 u/L
- ALBUMIN [2]: 3.83 G/DL
- ALKALINE PHOSPHATASE [2]: 374.33 u/L
- ASPARTATE AMINOTRANSFERASE [2]: 87.33 u/L
- BLOOD UREA NITROGEN [2]: 11 mg/dL
- CARBON DIOXIDE [2]: 35.33 mmol/L
- CHLORIDE [2]: 98 MEQ/L
- CHOLESTEROL [2]: 72 mg/dL
- CREATINE PHOSPHOKINASE [2]: 494.33 u/L
- CREATININE [2]: 0.14 mg/dL
- GLUCOSE [2]: 143.67 mg/dL
- LACTATE DEHYDROGENASE [2]: 159.67 u/L
- LIPASE [2]: 9.33 u/L
- PHOSPHORUS [2]: 11.1 mg/dL
- POTASSIUM [2]: 6.17 MEQ/L
- SODIUM [2]: 142.53 MEQ/L
- TOTAL BILIRUBIN [2]: 0.17 mg/dL
- TOTAL PROTEIN [2]: 5.83 G/DL
- URIC ACID [2]: 0.5 mg/dL
- ABSOLUTE BASOPHIL [3]: 0 CELLS/uL
- ABSOLUTE EOSINOPHIL [3]: 0 CELLS/uL
- ABSOLUTE LYMPHOCYTE [3]: 5152 CELLS/uL
- ABSOLUTE MONOCYTE [3]: 45 CELLS/uL
- ABSOLUTE SEGMENTED NEUTROPHIL [3]: 403 CELLS/uL
- BASOPHIL [3]: 0%
- EOSINOPHIL [3]: 0%
- ERYTHROCYTE COUNT [3]: 5.48 x10E6/uL
- HEMATOCRIT [3]: 33.3%
- HEMOGLOBIN [3]: 12.65 G/DL
- LEUKOCYTE COUNT [3]: 5.6 x10E3/uL
- LYMPHOCYTE [3]: 92%
- MEAN CORPUSCULAR HEMOGLOBIN [3]: 23.1 pg
- MEAN CORPUSCULAR HEMOGLOBIN CONCENTRATION [3]: 38 G/DL
- MEAN CORPUSCULAR VOLUME [3]: 60.75 fL
- MONOCYTE [3]: 1%
- NEUTROPHIL [3]: 7%
- NUCLEATED RED BLOOD CELLS [3]: 1 /100WBC
- PLATELET COUNT [3]: 1032 x10E3/uL
- ALANINE AMINOTRANSFERASE [3]: 67.5 u/L
- ALBUMIN [3]: 3.85 G/DL
- ALKALINE PHOSPHATASE [3]: 329.5 u/L
- ASPARTATE AMINOTRANSFERASE [3]: 96 u/L
- BLOOD UREA NITROGEN [3]: 13 mg/dL
- CARBON DIOXIDE [3]: 32.5 mmol/L
- CHLORIDE [3]: 100 MEQ/L
- CHOLESTEROL [3]: 64 mg/dL
- CREATINE PHOSPHOKINASE [3]: 628 u/L
- CREATININE [3]: 0.18 mg/dL
- GLUCOSE [3]: 150.5 mg/dL
- LACTATE DEHYDROGENASE [3]: 133 u/L
- LIPASE [3]: 11 u/L
- PHOSPHORUS [3]: 9.75 mg/dL
- POTASSIUM [3]: 5.09 MEQ/L
- SODIUM [3]: 145.4 MEQ/L
- TOTAL BILIRUBIN [3]: 0.15 mg/dL
- TOTAL PROTEIN [3]: 6 G/DL
- URIC ACID [3]: 0.45 mg/dL

Reference: ChEMBL document CHEMBL3885881, “DrugMatrix”
